Experiment [1] can be described thus: Relative potency with respect to PGE1 = 100 in rat blood pressure assay. In kind it is functional.
Another experiment is filed under the species Homo sapiens. The experiment in a line: In vitro inhibition of ADP-induced platelet aggregation in human platelet rich plasma. In kind it is functional.
A short description of experiment [2]: Potency in gerbil colon stimulation assay compared to PGE1. In kind it is functional.
A short description of experiment [3]: Relative potency with respect to PGF2-alpha = 100 in rat blood pressure assay.

In brackets after ≈: the same amount, converted by molar mass.

In general, IC50 refers to the concentration that inhibits the measured activity by half. For `CCCCC[C@H](O)C/C=C1/C(=O)C[C@H](O)[C@@H]1C/C=C\CCCC(=O)O`, the Relative potency in experiment [1] came to 10; in experiment [2] it was 1. In the experiment listed under Homo sapiens, this compound had a half-inhibitory concentration (IC50) of 0.1 µg/mL (≈ 0.284 µM).
The like results for `CCCCC/C=C/C=C1/C(=O)C[C@H](O)[C@@H]1C/C=C\CCCC(=O)O` were, in that order, 0.1, below 0.1 and 0.32 µg/mL (≈ 0.957 µM).
With `CCCCC[C@H](O)/C=C/C1C(=O)C[C@H](O)[C@@H]1CCOCCCC(=O)O` (stereo partly drawn), 0.032 µg/mL (≈ 0.0898 µM) corresponded to half-maximal inhibition in the experiment listed under Homo sapiens (IC50). The same compound displayed a Relative potency in experiment [2] of 0.3.
As to `CCCCC[C@H](O)/C=C/C1C(=O)CC(O)[C@@H]1C/C=C\CCCC(=O)O` (stereo partly drawn), the results for the Relative potency in experiment [1] and in experiment [2] were 10 and 0.3, respectively. The half-inhibitory concentration (IC50) in the experiment filed under Homo sapiens came out at 0.0001 µg/mL (≈ 0.000284 µM).
The matching figures for `CCCCC[C@H](O)/C=C/C1C(=O)CC[C@@H]1C/C=C\CCCC(=O)O` (stereo partly drawn): 10, 1 and 0.001 µg/mL (≈ 0.00297 µM).
The matching figures for `CCCCC[C@H](O)/C=C/C1C(=O)CC2OC(=O)CCC/C=C\C[C@@H]21` (stereo partly drawn): 1, 0.3 and 0.032 µg/mL (≈ 0.0957 µM).
Take `CC/C=C\C[C@H](O)/C=C/C1C(=O)C[C@H](O)[C@@H]1C/C=C\CCCC(=O)O` (stereo partly drawn): the Relative potency turned out to be 10 in experiment [1] and 1 in experiment [2]. In addition, the IC50 in the experiment filed under Homo sapiens stood at 0.0032 µg/mL (≈ 0.00913 µM).
The like results for `CCCCC[C@H](O)/C=C/C1C(=O)C[C@H](O)[C@@H]1CCCCCCC(=O)O` (stereo partly drawn) were, in that order, 0.1, 3 and 0.32 µg/mL (≈ 0.903 µM).
`CCCCC[C@H](O)/C=C/C1C(=O)C[C@H](O)[C@@H]1C/C=C\CCCCCC(=O)O` (stereo partly drawn) returned a concentration for half-maximal inhibition (IC50) in the experiment listed under Homo sapiens of 1 µg/mL (≈ 2.63 µM). Further, the Relative potency in experiment [2] was below 0.1.
As for `O=C(O)CCC/C=C\C[C@@H]1C(/C=C/[C@@H](O)CCc2ccccc2)C(=O)C[C@@H]1O` (stereo partly drawn), the midpoint of inhibition in the experiment filed under Homo sapiens, the IC50, lay at 3.2 µg/mL (≈ 8.28 µM). In addition, the Relative potency is given as 10 in experiment [2] and 32 in experiment [3].
`CCCCC[C@@H]1/C=C\C2C(=O)CC(O)[C@@H]2C/C=C\CCCC(=O)O1` (stereo partly drawn): the Relative potency in experiment [1] and in experiment [2] was 0.1 in each case. In the experiment filed under Homo sapiens, this compound yielded a half-inhibitory concentration (IC50) of 1 µg/mL (≈ 2.99 µM).
Take `CCCCC[C@H](O)CCC1C(=O)C[C@H](O)[C@@H]1CCCCCCC(=O)O` (stereo partly drawn): the IC50 in the experiment listed under Homo sapiens was found to be 3.2 µg/mL (≈ 8.98 µM). Further, the Relative potency in experiment [2] is 0.1; in experiment [3] it was 0.3.
In the case of `CCCCC[C@](C)(O)/C=C/C1C(=O)C=C[C@@H]1C/C=C\CCCC(=O)O` (stereo partly drawn), the Relative potency is listed as 0.1 in experiment [1] and 0.3 in experiment [2]. In addition, the half-inhibitory concentration (IC50) in the experiment listed under Homo sapiens came out at 1 µg/mL (≈ 2.87 µM).
In the case of `CCCCC[C@H](O)/C=C/C1C(=O)C=C[C@@H]1C/C=C\CCCC(=O)O` (stereo partly drawn), the Relative potency was 10 in experiment [1] and 0.1 in experiment [2]. The same compound registered an IC50 in the experiment filed under Homo sapiens of 0.0032 µg/mL (≈ 0.00957 µM).
In the experiment listed under Homo sapiens, `CCCCC[C@](C)(O)/C=C/C1C(=O)C[C@H](O)[C@@H]1C/C=C\CCCC(=O)O` (stereo partly drawn) displayed an IC50 of 0.32 µg/mL (≈ 0.873 µM). For the same compound, the Relative potency in experiment [2] amounted to 10; in experiment [3], 32.
Regarding `CCCCC(C)(C)[C@H](O)/C=C/C1C(=O)C[C@H](O)[C@@H]1C/C=C\CCCC(=O)O` (stereo partly drawn), the Relative potency is reported as 3 in experiment [2] and 32 in experiment [3].
`CCCCC[C@H](O)/C=C/[C@H]1C(=O)C[C@H](O)[C@@H]1C/C=C/CCCC(=O)O` [[3H]PGD2]: the Relative potency in experiment [1] was 10; in experiment [2] it was 3. In the experiment filed under Homo sapiens, this compound gave an IC50 of 0.0032 µg/mL (≈ 0.00908 µM).

(Values after ChEMBL document CHEMBL1122225, “Synthesis and platelet aggregation inhibiting activity of prostaglandin D analogues” (J Med Chem, 1983).)
